Laboratory results as given in PubChem BioAssay (NCI).
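The compound was tested at five concentrations on cells cultured in 96-well plates, with a 48-hour exposure period. At the TGI there is no net growth.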

Legend:
Experiment in all cases: growth of human tumour cells (NCI), 48 h
LXFL 529 NSCLC = tested on: LXFL 529 NSCLC
MDA-MB-231 breast = tested on: MDA-MB-231 breast
SK-OV-3 ovarian = tested on: SK-OV-3 ovarian
786-0 renal = tested on: 786-0 renal
OVCAR-3 ovarian = tested on: OVCAR-3 ovarian
SW-620 colon = tested on: SW-620 colon
BT-549 breast = tested on: BT-549 breast
HCC-2998 colon = tested on: HCC-2998 colon
T-47D breast = tested on: T-47D breast
UO-31 renal = tested on: UO-31 renal
HOP-62 NSCLC = tested on: HOP-62 NSCLC
SN12C renal = tested on: SN12C renal
A498 renal = tested on: A498 renal
COLO 205 colon = tested on: COLO 205 colon
MALME-3M melanoma = tested on: MALME-3M melanoma
HCT-15 colon = tested on: HCT-15 colon
HCT-116 colon = tested on: HCT-116 colon
M14 melanoma = tested on: M14 melanoma
SK-MEL-2 melanoma = tested on: SK-MEL-2 melanoma
PC-3 prostate = tested on: PC-3 prostate
SNB-78 CNS = tested on: SNB-78 CNS
SK-MEL-5 melanoma = tested on: SK-MEL-5 melanoma
NCI-H522 lung = tested on: NCI-H522 lung
DMS 273 small cell lung = tested on: DMS 273 small cell lung
NCI-H460 lung = tested on: NCI-H460 lung
HL-60(TB) leukemia = tested on: HL-60(TB) leukemia
U251 CNS = tested on: U251 CNS
OVCAR-5 ovarian = tested on: OVCAR-5 ovarian
IGROV1 ovarian = tested on: IGROV1 ovarian
DLD-1 colon = tested on: DLD-1 colon
MDA-N = tested on: MDA-N
SNB-19 CNS = tested on: SNB-19 CNS
OVCAR-4 ovarian = tested on: OVCAR-4 ovarian
UACC-62 melanoma = tested on: UACC-62 melanoma
SK-MEL-28 melanoma = tested on: SK-MEL-28 melanoma
DMS 114 small cell lung = tested on: DMS 114 small cell lung
CCRF-CEM leukemia = tested on: CCRF-CEM leukemia
ACHN renal = tested on: ACHN renal
SF-295 CNS = tested on: SF-295 CNS
KM12 colon = tested on: KM12 colon
K-562 leukemia = tested on: K-562 leukemia
A549 NSCLC = tested on: A549 NSCLC
HS 578T breast = tested on: HS 578T breast
MCF7 breast = tested on: MCF7 breast
KM20L2 colon = tested on: KM20L2 colon
UACC-257 melanoma = tested on: UACC-257 melanoma
SNB-75 CNS = tested on: SNB-75 CNS
NCI-H23 lung = tested on: NCI-H23 lung
MDA-MB-435 = tested on: MDA-MB-435
XF 498 CNS = tested on: XF 498 CNS
RXF 393 renal = tested on: RXF 393 renal
RPMI-8226 leukemia = tested on: RPMI-8226 leukemia
NCI/ADR-RES ovarian = tested on: NCI/ADR-RES ovarian
DU-145 prostate = tested on: DU-145 prostate
M19-MEL melanoma = tested on: M19-MEL melanoma
HOP-18 NSCLC = tested on: HOP-18 NSCLC
CAKI-1 renal = tested on: CAKI-1 renal
NCI-H226 lung = tested on: NCI-H226 lung
MOLT-4 leukemia = tested on: MOLT-4 leukemia
HT29 colon = tested on: HT29 colon
SF-539 CNS = tested on: SF-539 CNS
LOX IMVI melanoma = tested on: LOX IMVI melanoma
EKVX NSCLC = tested on: EKVX NSCLC
OVCAR-8 ovarian = tested on: OVCAR-8 ovarian
TK-10 renal = tested on: TK-10 renal
SF-268 CNS = tested on: SF-268 CNS
HOP-92 NSCLC = tested on: HOP-92 NSCLC

CN(C)CCNc1ccc2ncn3c4ccc(O)cc4c(=O)c1c23
TGI (LXFL 529 NSCLC): 14.6 µM | TGI (MDA-MB-231 breast): 5.44 µM | TGI (SK-OV-3 ovarian): 17 µM | TGI (786-0 renal): 13.3 µM | TGI (OVCAR-3 ovarian): 13.4 µM | TGI (SW-620 colon): 11.8 µM | TGI (BT-549 breast): 28.1 µM | TGI (HCC-2998 colon): 12.7 µM | TGI (T-47D breast): 25 µM | TGI (UO-31 renal): 8.06 µM | TGI (HOP-62 NSCLC): 5.35 µM | TGI (SN12C renal): 13.3 µM | TGI (A498 renal): 8.04 µM | TGI (COLO 205 colon): 9.32 µM | TGI (MALME-3M melanoma): 14.4 µM | TGI (HCT-15 colon): 10.2 µM | TGI (HCT-116 colon): 11.5 µM | TGI (M14 melanoma): 8.47 µM | TGI (SK-MEL-2 melanoma): 13 µM | TGI (PC-3 prostate): 10.8 µM | TGI (SNB-78 CNS): 21.4 µM | TGI (SK-MEL-5 melanoma): 8.52 µM | TGI (NCI-H522 lung): 5.68 µM | TGI (DMS 273 small cell lung): 12.4 µM | TGI (NCI-H460 lung): 6.5 µM | TGI (HL-60(TB) leukemia): 13.6 µM | TGI (U251 CNS): 3.97 µM | TGI (OVCAR-5 ovarian): 15 µM | TGI (IGROV1 ovarian): 8.87 µM | TGI (DLD-1 colon): 16.1 µM | TGI (MDA-N): 15.1 µM | TGI (SNB-19 CNS): 17.2 µM | TGI (OVCAR-4 ovarian): 4.89 µM | TGI (UACC-62 melanoma): 15.9 µM | TGI (SK-MEL-28 melanoma): 18 µM | TGI (DMS 114 small cell lung): 16.8 µM | TGI (CCRF-CEM leukemia): 15.3 µM | TGI (ACHN renal): 4.6 µM | TGI (SF-295 CNS): 14 µM | TGI (KM12 colon): > 35.7 µM | TGI (K-562 leukemia): 29 µM | TGI (A549 NSCLC): 4.26 µM | TGI (HS 578T breast): 8.19 µM | TGI (MCF7 breast): 4.91 µM | TGI (KM20L2 colon): 12.9 µM | TGI (UACC-257 melanoma): 19.7 µM | TGI (SNB-75 CNS): 10.2 µM | TGI (NCI-H23 lung): 10.9 µM | TGI (MDA-MB-435): 14.7 µM | TGI (XF 498 CNS): 17.1 µM | TGI (RXF 393 renal): 2.58 µM | TGI (RPMI-8226 leukemia): 13.1 µM | TGI (NCI/ADR-RES ovarian): 18.9 µM | TGI (DU-145 prostate): 10.8 µM | TGI (M19-MEL melanoma): 13.1 µM | TGI (HOP-18 NSCLC): 49.6 µM | TGI (CAKI-1 renal): 4.83 µM | TGI (NCI-H226 lung): 3.47 µM | TGI (MOLT-4 leukemia): 10.5 µM | TGI (HT29 colon): 7.39 µM | TGI (SF-539 CNS): 14.7 µM | TGI (LOX IMVI melanoma): 3.36 µM | TGI (EKVX NSCLC): 17.5 µM | TGI (OVCAR-8 ovarian): 7.76 µM | TGI (TK-10 renal): 21.8 µM | TGI (SF-268 CNS): 10.7 µM | TGI (HOP-92 NSCLC): 13.8 µM
